# Test results from PubChem BioAssay (NCI).
# Values joined by “and” are separate entries in the source; they are usually repeats but may differ in a detail not shown here. Equal entries are not always repeated.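 Dose response: 5 concentrations. Exposure: 48 h. Format: 96-well plates. Endpoint: linear interpolation; highest concentration if not reached. At the GI50, growth is halved. Definition used: TGI = concentration required for complete inhibition of growth.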
# Test system: MDA-MB-468 breast
# Experiment: inhibition of tumour cell growth, NCI panel, 48 h
Structure (SMILES),GI50,TGI
NC(CCl)=NCC12CC3CC(CC(C3)C1)C2,827 nM,6950 nM
COc1ccc(-c2oc3ncnc(N)c3c2-c2ccc(NC(=O)Nc3cc(C(F)(F)F)ccc3F)cc2)cc1,903 nM,2310 nM
N#Cc1nc(-c2ccccc2)oc1S(=O)(=O)N1CCN(CCc2ccccn2)CC1,1600 nM,3450 nM
COC(=O)[C@@H](C)C[C@H](Cc1ccccc1)NC(=O)c1csc([C@@H](C[C@H](C(C)C)N(C)C(=O)[C@@H](NC(=O)[C@H]2CCCCN2C)c2ccc(F)cc2)OC(C)=O)n1,4.17 nM and 2.5 nM and 16.3 nM,25000 nM and > 100000 nM
O=C(N/N=C/c1ccc([N+](=O)[O-])cc1)c1ccccc1Nc1ccnc(C(F)(F)F)c1,15800 nM,41300 nM
Cc1cccc2c(=O)c3c(sc12)c(NCCCN)nc1ccccc13,1430 nM,2940 nM
O=C(Nc1ccc(Cl)cc1)c1cc(NCc2cc(O)ccc2O)ccc1O,4810 nM,26600 nM
COC(=O)[C@@H](C)C[C@H](Cc1ccc(F)cc1)NC(=O)c1csc([C@@H](C[C@H](C(C)C)N(C)C(=O)[C@@H](NC(=O)[C@H]2CCCCN2C)C2CC2)OC(C)=O)n1,138 nM,> 25000 nM
NC(=O)c1ccc(I)c([N+](=O)[O-])c1,24400 nM,> 65600 nM
COc1cc(OCCCN2CCCC2)ccc1Nc1ncc(Cl)c(Nc2ccccc2P(C)(C)=O)n1,1220 nM,3640 nM
COc1cc2nc(Cl)nc(Nc3cccc(C4=Nc5c(N)nc(N)nc5NC(c5ccc(F)cc5)C4)c3)c2cc1OC (stereo not drawn),1790 nM,3390 nM
O=C(N/N=C\c1ccc(N(CCCl)CCCl)cc1)c1cccnc1,11000 nM,59600 nM
CCCCCCCC(=O)Nc1nc2[nH]c(CN3CCN(Cc4cccc(I)c4)CC3)c(CN3CCN(Cc4cccc(I)c4)CC3)c2c(=O)[nH]1,858 nM,1640 nM
C#Cc1cccc(Nc2nc(C)nc3cc(NC(=O)CCl)ccc23)c1,770 nM,2180 nM
C=C[C@@H]1CCC/C=C/[C@@H]2C[C@H](O)C[C@H]2[C@H](O)/C=C/C(=O)O1,216 nM,611 nM
COc1nc2c(c(=O)n1C)CN(c1ccccc1)C(=O)CN2C,13300 nM,80900 nM
N#Cc1c(N)c(C(=O)c2ccc3c(c2)OCCO3)n2c1CCCC2,2470 nM,23700 nM
CO[C@H]1/C=C/O[C@@]2(C)Oc3c(C)c(O)c4c(O)c(c(/C=N/N5C(C)CN(Cc6ccc(C#N)cc6)CC5C)c(O)c4c3C2=O)NC(=O)/C(C)=C\C=C\[C@H](C)[C@H](O)[C@@H](C)[C@@H](O)[C@@H](C)[C@H](OC(C)=O)[C@@H]1C (stereo partly drawn),11000 nM,39900 nM
COc1ccc(-c2c(NC(=O)Nc3ccc(Cl)c(C(F)(F)F)c3)cnn2-c2ccc(S(N)(=O)=O)cc2)cc1,2050 nM,6880 nM
Oc1c(CN2CCCCC2)ccc2cccnc12,4890 nM,22400 nM

Structure (SMILES),GI50,TGI
FC(F)(F)c1cccc(Oc2ccc(Nc3ncnc4ccc(OCCCN5CCOCC5)cc34)cc2Cl)c1,480 nM,2850 nM
O=c1cc(-c2ccccc2)oc2c(O)c(O)ccc12,14300 nM,79200 nM
COc1cc(-c2n/c(=C\c3c(O)[nH]c4ccccc34)cc3c2=Nc2ccccc2-3)ccc1F,2610 nM,16700 nM
CC[C@H](C)[C@H](NC(=O)c1ncccn1)C(=O)N(C)[C@H](C[C@@H](OC(C)=O)c1nc(C(=O)N[C@@H](Cc2ccccc2)C[C@H](C)C(=O)OC)cs1)C(C)C,757 nM,> 25000 nM
C[C@]1(c2nc3c(C(N)=O)cccc3[nH]2)CCCN1,29700 nM,> 100000 nM
O=c1oc2ccc(F)cc2c(=O)n1-c1ccc(I)cc1F,375 nM,2450 nM
COC1=CC(c2ccc[nH]2)=N/C1=C\c1[nH]c(C)c(CC(=O)NCc2ccccc2)c1C,1170 nM,2630 nM
Cc1cc(C)c([I+]c2c(C)cc(C)cc2C)c(C)c1,134 nM,672 nM
CCCCCCCCCCCCCCCCCC1=NC(C)(C)CN1C(C)(C)CO,1210 nM,2560 nM
N[C@@H](Cc1c[nH]c2ccccc12)C(=O)NC1CCN(Cc2c[nH]c3ccc(Cl)cc23)CC1,2430 nM,5740 nM
Cn1cc(-c2ncnc3ccc(-c4cnc(Cl)c(NS(C)(=O)=O)c4)cc23)c2ccccc21,183 nM,2350 nM
CC1(C)N=C(N)N=C(N)N1c1cccc(CCCCc2ccc(Cl)c(S(=O)(=O)F)c2)c1,10600 nM,24500 nM
CC1(C)CC[C@]2(C(=O)NCCNCCN)CC[C@]3(C)C(=CC[C@@H]4[C@@]5(C)CCC(=O)C(C)(C)[C@@H]5CC[C@]43C)[C@@H]2C1,1710 nM,3290 nM
COc1ccc2c(c1)C(=O)/C(=C/c1ccc(O)cc1)O2,2400 nM,12400 nM
O=C1NN(C(=O)c2ccccc2)C(c2ccc(Cl)c(Cl)c2)=C/C1=C\c1ccccc1[N+](=O)[O-],6140 nM,> 6750 nM
Nc1ccccc1NC(=O)c1ccc(NC(=O)C/C=C/c2cccnc2)cc1,915 nM,2660 nM
COc1ccc2cc(C(=O)N3CCC([C@@H](C)C(=O)NCc4ccc5c(c4)OCO5)CC3)[nH]c2c1,86200 nM,> 100000 nM
CCOc1ccc(Nc2ccnc3cc(Cl)ccc23)cc1,43100 nM,> 100000 nM
CCCCNC(=O)Oc1ccc(/C(=C(\C)c2ccc(OC)cc2)c2ccc(OCCN3CCCCC3)cc2)cc1,2080 nM,5070 nM
